The values below come from patent US20070092587A1, “Extract from plant of japanese parsley family and process for producing the same” (priority 2004, published 2007).

Experiment [1] relates to mature adipocytes (3T3-L1 cells). The experiment is described as follows: Enhancing action on glucose uptake (2-deoxyglucose uptake) into mature adipocytes. The conditions noted are these: insulin 1 μg/mL positive control, compared to negative control. It counts as cell-based. As to the method: The induction of differentiation into mature adipocytes was carried out by partially modifying the method of Rubin C. S. et al. 3T3-L1 cells were suspended in a 10% fetal bovine serum-containing Dulbecco's modified Eagle's medium containing 200 μM ascorbic acid so as to have a density of 4×10^3 cells/mL, and the suspension was put in each well of a 12-well microtiter plate in an amount of 2 mL per well. The cells were cultured at 37° C. for 7 days in the presence of 5% carbon dioxide gas. On the seventh day, the medium was exchanged with 2 mL of a 10% fetal bovine serum-containing Dulbecco's modified Eagle's medium containing 200 μM ascorbic acid, 0.25 μM dexamethasone, 10 μg/mL insulin and 0.5 mM 3-isobutyl-1-methylxanthine (manufactured by Nacalai Tesque, Inc., 19624-44). After 45 hours, the medium was exchanged with 2 mL of a 10% fetal bovine serum-containing Dulbecco's modified Eagle's medium containing 200 μM ascorbic acid and 5 μg/mL insulin. The medium was exchanged on after 2 days and 4 days, and the cells were cultured for 7 days, to give mature adipocytes.
As the evaluation of enhancing action on glucose uptake, and also as the evaluation of insulin-mimetic action, the amount of 2-deoxyglucose uptake into mature adipocytes stimulated with the sample ([…]) in the adipocytes was determined.
After the termination of the culture, the medium was removed, and the cells were washed twice with a 0.1% (w/v) bovine serum albumin (manufactured by Sigma, A8022)-containing Dulbecco's modified Eagle's medium. Thereafter, 1 mL of the […] ethanol solution at a final concentration of 0.1%, 0.067%, or 0.022%, […] solution at a final concentration of 0.2%, 0.067%, or 0.022%, […] ethanol solution or the dimethyl sulfoxide solution of the extract from the root portion of Angelica keiskei koidz. with the 100% ethanol so as to have a final concentration of 0.067% or 0.022%, each extract being prepared in Example 4, was put to each well. The cells were cultured overnight at 37° C. in the presence of 5% carbon dioxide gas. Here, a group without addition of the sample was set as a negative control. After the overnight culture, the cells were washed twice with a HEPES buffered saline (140 mM NaCl, 5 mM KCl, 2.5 mM MgSO4, 1 mM CaCl2, 20 mM HEPES-Na (pH 7.4)), and 0.9 mL of the […] ethanol solution at a final concentration of 0.1%, 0.067%, or 0.022%, […] solution at a final concentration of 0.2%, 0.067%, or 0.022%, […] ethanol solution or the dimethyl sulfoxide solution of the extract from the root portion of Angelica keiskei koidz. with the 100% ethanol so as to have a final concentration of 0.067% or 0.022%, was added thereto. The cells were cultured at 37° C. for 75 minutes. At the point when 45 minutes passed, there was set in a well without addition of the sample a group with addition of insulin so as to have a final concentration of 1 μg/mL as a positive control. Thereafter, 100 μL of a HEPES buffered saline containing 0.5 μCi/mL 2-deoxy-[1,2-^3H(N)]-glucose (manufactured by PerkinElmer Life Sciences Inc., NET549A) and 1 mM 2-deoxyglucose (manufactured by Nacalai Tesque, Inc., 10722-11) was added thereto, and the cells were further cultured at 37° C. for 10 minutes. […] The radioactivity was determined with a liquid scintillation counter LS6500 (manufactured by Beckmann) using 25 μl of the supernatant with Ultima Gold (manufactured by PerkinElmer Life Sciences Inc., 6013329) as a scintillation cocktail. […]

The subject of experiment [2] is Preadipocyte cell line 3T3-L1. Put plainly: Induction of differentiation into adipocytes (amount of triglyceride biosynthesis). It counts as cell-based. The conditions noted are these: for induction of biosynthesis of triglyceride (inducing action on differentiation into mature adipocytes): isolated compounds at final 1-30 μM, seven days after addition. Here is the method:
The induction of differentiation into adipocytes was carried out by partially modifying the method of Rubin C. S. et al. (J. Biol. Chem., Vol. 253, No. 20, p7570-7578 (1978)). Preadipocyte cell line 3T3-L1 (ATCC CCL-92.1) was suspended in a 10% fetal bovine serum (manufactured by GIBCO)-containing Dulbecco's modified Eagle's medium (manufactured by Sigma, D6046) containing 200 μM ascorbic acid (hereinafter referred to as A-D-MEM medium) so as to have a density of 4×10^3 cells/mL, and the suspension was put in each well of a 12-well microtiter plate in an amount of 2 mL per well. The cells were cultured at 37° C. for 7 days in the presence of 5% carbon dioxide gas. The medium was exchanged with the same medium on the second day and the fourth day. On the seventh day, the medium was exchanged with A-D-MEM medium containing 0.25 μM dexamethasone. […] Here, there were set a group with addition of 4 μL of a 5 mg/mL aqueous solution of insulin (manufactured by TAKARA BIO INC.) as a positive control, and a group with addition of dimethyl sulfoxide as a negative control. After 45 hours, the medium was exchanged with A-D-MEM medium. […] The cells were cultured for additional 7 days.
The amount of triglyceride in the adipocytes was determined as an index for inducing differentiation into matured adipocytes, and as evaluation of insulin-mimetic action. After the termination of the culture, the medium was removed, and the cells were washed twice with a phosphate buffered saline. One milliliter of a solvent of hexane: isopropanol=3:2 was added thereto. The mixture was allowed to stand at room temperature for 30 minutes, and thereafter the supernatant was collected. The procedures were repeated again, and 2 mL of the resulting supernatant was concentrated to dryness. The precipitate was dissolved in 100 μL of isopropanol, and thereafter the amount of triglyceride contained in 10 μL of the resulting solution was determined with Triglyceride E-Test (manufactured by Wako Pure Chemical Industries, Ltd., code 432-40201). All of the determinations were carried out twice.
Specifically, as a sample, there was set a group with addition of the dimethyl sulfoxide solution of the extract from the root portion of Angelica keiskei koidz. with the 40% aqueous ethanol solution at a final concentration of 0.1% or 0.033%, the dimethyl sulfoxide solution of the extract from the root portion of Angelica keiskei koidz. with the 50% aqueous ethanol solution at a final concentration of 0.033% or 0.011%, the dimethyl sulfoxide solution of the extract from the root portion of Angelica keiskei koidz. with the 70% aqueous ethanol solution at a final concentration of 0.022%, the dimethyl sulfoxide solution of the extract from the root portion of Angelica keiskei koidz. with the 60% or 80% aqueous ethanol solution or the dimethyl sulfoxide solution of the extract with the 100% ethanol so as to have a final concentration of 0.067% or 0.022%, respectively, to each well. Here, there were set a group with addition of 4 μL of a 5 mg/mL aqueous solution of insulin (manufactured by TAKARA BIO INC.) as a positive control, and a group with addition of dimethyl sulfoxide as a negative control. Thereafter, the medium and the sample were exchanged in the same manner as in the method described in Example 5, and after seven days from the addition of the sample, the amount of triglyceride in the adipocytes was determined.
Here, there were set a group with addition of 4 μL of a 5 mg/mL aqueous solution of insulin (manufactured by TAKARA BIO INC.) as a positive control, and a group with addition of dimethyl sulfoxide as a negative control. Thereafter, the medium and the sample were exchanged in the same manner as in the method described in Example 5, and after seven days from the addition of the sample, the amount of triglyceride in the adipocytes was determined.

The target in experiment [3] is T1, human muscle cell-derived aldose reductase (Homo sapiens, UniProt P15121).
T1 construct: purchased Wako Pure Chemical Industries, Ltd
The experiment is described as follows: Inhibitory action for aldose reductase (change in NADPH absorbance at 340 nm, methylglyoxal substrate). It counts as biochemical. Here is the method: Inhibitory action for aldose reductase of the extract from the root portion of Angelica keiskei koidz. was determined in accordance with the following method. As a sample, 20 μL of a 100 mM methylglyoxal solution was added to 10 μL of each of the kinds of ethanol extracts from the root portion of Angelica keiskei koidz. prepared in Example 4, and 10 μL of the water extract from the root portion of Angelica keiskei koidz. prepared in Preparation Example 1 (a solution prepared by dissolving the extract in a 50% aqueous dimethyl sulfoxide solution), 100 μL of 0.2 M phosphate buffer (pH 6.2), 20 μL of 1 mM NADPH (phosphate buffer), and 10 μL of a human muscle cell-derived aldose reductase solution (0.1 U/mL, manufactured by Wako Pure Chemical Industries, Ltd., phosphate buffer). For a period of 180 seconds after 30 seconds passed, the change in absorbance of NADPH at 340 nm was determined. As a negative control, a 50% aqueous dimethyl sulfoxide solution was used in place of the sample. Also, the absorbance was determined using distilled water as a blank solution for each sample in place of the methylglyoxal solution. The determination values were expressed as an average of two experimental values. The inhibitory ratio (%) for aldose reductase was calculated in accordance with the following formula: Inhibitory Ratio (%)=[1−(ΔAs−ΔAsb)/(ΔAc−ΔAcb)]×100, wherein ΔAs and ΔAc show a change in the absorbance of each of the sample solution and the negative control solution per minute; and ΔAsb and ΔAcb show a change in the absorbance of the blank solutions for the sample solution and the negative control solution per minute.
The inhibitory activity for aldose reductase of the extract from the leaf and stem portions of Angelica keiskei koidz. prepared in Example 3 was determined in the same manner as in Example 8.

Another experiment concerns the target aldose reductase (Homo sapiens, UniProt P15121). The conditions noted are these: clarified in WO 2004/031165; cited from earlier work.
[4] abbreviates: isolated compounds at final 3-30 μM.

`COc1ccc(C(=O)/C=C/c2ccc(O)cc2)c(O)c1CC=C(C)C` [4-hydroxyderricin]: in experiment [1] (setting [4]), the “enhancement of 2-deoxy-[1,2-3H(N)]-glucose uptake” value was “enhancement of 2-deoxy-[1,2-^3H(N)]-glucose uptake was found”. In addition, the “induction of biosynthesis of triglyceride (inducing action on differentiation into mature adipocytes)” value in experiment [2] is on record as “induction of biosynthesis of triglyceride was found”.
As to `COc1ccc2c(c1CC=C(C)C)O[C@H](c1ccc(O)cc1)CC2=O` [Munduleaflavanone A, munduleaflavanone A], the “induction of biosynthesis of triglyceride (inducing action on differentiation into mature adipocytes)” value in experiment [2] is listed as “induction of biosynthesis of triglyceride was found”. In addition, the “Inhibitory Ratio (%) of Aldose Reductase” value in experiment [3] (2.5 μM) is 38.5%; in experiment [3] (5 μM) it was 54.6%; in experiment [3] (10 μM) it was 68.5%; in experiment [3] (20 μM), 73.8%.
As to `CC(C)=CCC/C(C)=C/Cc1c(O)ccc2c1O[C@H](c1ccc(O)cc1)CC2=O` [Prostratol F, prostratol F], the “induction of biosynthesis of triglyceride (inducing action on differentiation into mature adipocytes)” value in experiment [2] was “induction of biosynthesis of triglyceride was found”. Also, the “Inhibitory Ratio (%) of Aldose Reductase” value in experiment [3] (2.5 μM) was 27.4%; in experiment [3] (5 μM), 46.3%; in experiment [3] (10 μM) it was 57.1%; in experiment [3] (20 μM) it was 61.4%.
With `CC12CCC(O)C(C)(C)C1Cc1c(O)ccc(C(=O)/C=C/c3ccc(O)cc3)c1O2` (centres unmarked) [TB1], in experiment [2], the “induction of biosynthesis of triglyceride (inducing action on differentiation into mature adipocytes)” value is “induction of biosynthesis of triglyceride was found”. Further, the “inhibitory actions for aldose reductase” value at aldose reductase is “inhibitory actions for aldose reductase are found”.
For `CC(C)=CCCC1(C)Oc2c(C(=O)/C=C/c3ccc(O)cc3)ccc(O)c2CC1O` (centres unmarked) [TB2], in experiment [2], the “induction of biosynthesis of triglyceride (inducing action on differentiation into mature adipocytes)” value is “induction of biosynthesis of triglyceride was found”. The “inhibitory actions for aldose reductase” value on aldose reductase is on record as “inhibitory actions for aldose reductase are found”.
In the case of bavachromanol, the “Inhibitory Ratio (%) of Aldose Reductase” value in experiment [3] (2.5 μM) was determined as 42.1%; in experiment [3] (5 μM), 58.2%; in experiment [3] (10 μM), 70.5%; in experiment [3] (20 μM) it was 80.1%.
Regarding “insulin: insulin (manufactured by TAKARA BIO INC.), positive control [reference compound]”, the “enhancement of 2-deoxy-[1,2-3H(N)]-glucose uptake” value in experiment [1] (setting [4]) and in experiment [1] (root extracts (Example 4) at final 0.022-0.2%) was “enhancement of 2-deoxy-[1,2-^3H(N)]-glucose uptake was found” throughout. Besides, the “induction of triglyceride biosynthesis (activity of inducing differentiation into adipocytes)” value in experiment [2] (leaf and stem extracts (Example 3) at final 0.011-0.2%, insulin positive control, compared to dimethyl sulfoxide group) is given as “induction of triglyceride biosynthesis could be also confirmed”.
